These results are taken from US10711007B2, “Selective inhibitors of protein arginine methyltransferase 5 (PRMT5)” (Prelude Therapeutics, Incorporated, priority 2018, dated 2020).

What all share (assay type): cell-based
For assay [1], the system named is γ-globin expression in erythroid progenitors. Put plainly: γ-globin induction by quantitative PCR in human erythroid progenitor cells. Particulars: 9 days of treatment, N=1. As for the experimental part: (§1) Compounds were dissolved in DMSO to make 10 mM stock solutions, and further diluted to make 1 mM and 0.1 mM stocks.
Human erythroid progenitor cells were generated from purified CD34+ cells from mobilized peripheral blood purchased from AllCells. CD34+ cells were cultured in StemSpan SFEM II (StemCell Technologies, Catalog #09605) supplemented with 100 ng/ml FLT3 ligand (R&D systems, Catalog #308-FK), 100 ng/ml SCF (R&D systems, Catalog #255-SC), 20 ng/ml IL-3 (R&D systems, Catalog #203-IL), 20 ng/ml IL-6 (R&D systems, Catalog #206-IL) for 6 days, then reseeded into the same medium supplemented with 20 ng/ml SCF, 5 ng/ml IL-3, 1 U/ml EPO (R&D systems, Catalog #287-TC), 2 μM dexamethasone (Sigma-Aldrich, Catalog # D4902), 1 μM β-estradiol (Sigma-Aldrich, Catalog # E2758). Cells were treated with 0.1 and 1 μM compound from Day 8 of differentiation. Media and compound were renewed every 3 days and cells were collected for RNA isolation after 9 days of treatment.
(§2) Assessment of γ-Globin Induction by Quantitative PCR
RNA was isolated using Quick-RNA Microprep kit (Zymo Research, Catalog # Z1050), cDNA was synthesized using qScript cDNA SuperMix (Quantabio, Catalog #95048). Quantitative PCR for y-globin was performed using PerfeCTa SYBR Green FastMix (Quantabio, Catalog #95071) on Bio-Rad CFX Connect Real-Time PCR Detection System. […]

For assay [2], the system named is sDMA marks (SmD3me2s) in U-87 MG cells. As to the kind of experiment: Western blotting for symmetric di-methyl arginine (sDMA) marks in U-87 MG cells. Particulars: Homo sapiens, 72 h; U-87 MG cell line, 3 days. As for the experimental part:
Cell Treatment and Western Blotting for Detecting Symmetric Di-Methyl Arginine (sDMA) Marks
Compound Titration and Cell Culture:
Compounds were dissolved in DMSO to make 10 mM stock and 3-fold series dilutions were further conducted to make working stocks top at 1 mM. Granta-519 cells were maintained in PRMI 1640 (Corning Cellgro, Catalog #: 10-040-CV) supplemented with 10% v/v FBS (GE Healthcare, Catalog #: SH30910.03) and U-87 MG cells were maintained in DMEM (Corning Cellgro, Catalog #: 10-013-CV) with 10% FBS and 2 mM Glutamin (Corning Cellgro, Catalog #25005CV).
To determine enzyme inhibition IC50 values in Granta-519 and U-87 MG cells using Western Blot analysis. One day before experiment, Granta-519 cells were passaged to a density of 0.5×10^6 cells/ml. U-87 MG cells were trypsinized and 4×10^5 cells were seeded into 6-well plates and allow to grow overnight. The next day, Granta-519 cells were spun down at 1,500 rpm for 4 min, resuspend in fresh medium at 0.5×10^6 cells/ml and 3 mL of culture (1.5×10^6 cells) were seeded into 6 well plate. Eight-point, 3-fold serial dilutions of compound working stocks were added to cells (3 ul, 1:1,000 dilution, DMSO concentration was 0.1%; final top concentration at 1 uM) and incubated for 3 days. Cells incubated with DMSO was used as a vehicle control.
Cells were harvested 3 days later, resuspended in 15 uL PBS, lysed in 4% SDS, and homogenized by passing through homogenizer column (Omega Biotek, Catalog #: HCR003). Total protein concentrations were determined by BCA assay (ThermoFisher Scientific, Catalog #: 23225). Lysates were mixed with 5× Laemmli buffer and boiled for 5 min. Forty ug of total protein was separated on SDS-PAGE gels (Bio-Rad, catalog #: 4568083, 4568043), transferred to PVDF membrane, blocked with 5% dry milk (Bio-Rad, Catalog #: 1706404) in TBS with 0.1% v/v Tween 20 (TBST) for 1 hour at room temperature (RT), and incubated with primary antibodies (sDMA: Cell signaling, Catalog #: 13222, 1:3,000; β-Actin: sigma, Catalog #: 1:5,000) in 5% dry milk in TBST at 4° C. overnight. The next day, membranes were washed with TBST, 5×5 min, and incubated with HRP conjugated seconded antibody (GE Healthcare; Catalog #: NA934-1ML, NA931-1ML; 1:5,000) for 2 hours at RT, followed by 5×5 min washes with TBST, and incubation with ECL substrates (Bio-Rad, Catalog #: 1705061, 1705062). Chemiluminescent signal was captured with Fluochem HD2 imager (Proteinsimple). SmD3me2s bands were quantified by ImageJ. Signals were normalized to β-Actin and DMSO control. IC50 values were calculated using Graphpad Prism ([Inhibitor] vs. normalized response-Variable slope).
(A western blot detects proteins with antibodies after separation by electrophoresis.)

In assay [3] the test system is γ-globin expression in K562 cells. Put plainly: γ-globin induction by quantitative PCR in K562 cells. Particulars: 1 μM, 6 days of treatment, N=1. As to the method: as §1
K562 cells were purchased from ATCC and maintained in Iscove's DMEM (Corning Cellgro, Catalog #15-016-CVR) supplemented with 10% v/v FBS (GE Healthcare, Catalog #: SH30910.03) in a CO2 incubator (5% CO2) at 37° C. Cells were plated at a density of 5×10^5 cells/ml and treated with compound at final concentrations of 0.1 and 1 μM. Media and compound were renewed after 3 days in culture and cells were collected for RNA isolation after 6 days of treatment.
as §2
RNA was isolated using Quick-RNA Microprep kit (Zymo Research, Catalog # Z1050), cDNA was synthesized using qScript cDNA SuperMix (Quantabio, Catalog #95048). Quantitative PCR for y-globin was performed using PerfeCTa SYBR Green FastMix (Quantabio, Catalog #95071) on Bio-Rad CFX Connect Real-Time PCR Detection System. Gene expression analysis was performed using CFX Manager software.
Assessment of γ-Globin Induction by Quantitative PCR in K562 Cells
Compounds were dissolved in DMSO to make 10 mM stock solutions, and further diluted to make 1 mM and 0.1 mM stocks. K562 cells were purchased from ATCC and maintained in Iscove's DMEM (Corning Cellgro, Catalog #15-016-CVR) supplemented with 10% v/v FBS (GE Healthcare, Catalog #: SH30910.03) in a CO2 incubator (5% CO2) at 37° C. […]

The structures appear in SMILES notation.

Consider `Nc1ncnc2c1ccn2[C@@H]1O[C@H]([C@@H]2OCc3ccc(Cl)cc32)[C@@H](O)[C@H]1O` [Example 5, (2R,3R,4S,5S)-2-(4-amino-7H-pyrrolo[2,3-d]pyrimidin-7-yl)-5-((R)-6-chloro-1,3-dihydroisobenzofuran-1-yl)tetrahydrofuran-3,4-diol], for which the “increase in expression of γ-globin” value in assay [1] (0.1 μM) stood at 1.5 fold; in assay [1] (1 μM), 2 fold; in assay [3] it was 8 fold. The compound further yielded a half-maximal inhibitory concentration (IC50) in assay [2] of 25 nM.

Broadly, the IC50 is the concentration that gives 50% inhibition. High values mean a need for much substance, low ones inhibition by little substance.
